Assays:
[1] = test system: JIMT-1 cells; test: JIMT-1 cell proliferation assay (CellTiter 96 AQueous); assay type: cell-based; conditions: Homo sapiens, 72 hours
[2] = target: T1, Src (Homo sapiens, UniProt P12931); test: in vitro SRC kinase assay; assay type: biochemical; conditions: in vitro kinase assays; read-out: IC50 of inhibition of SRC kinase activity
Protocol: (§1) Inhibition of SRC kinase activity by EXEL-7647 was measured using in vitro kinase assays. […] In addition, the effect of EXEL-7647 on the phosphorylation of the […] protein FAK (focal adhesion kinase) was measured in cell culture (FIG. 1). Specifically, DLD1-PTK2 cells were treated with EXEL-7647 at concentrations of 1.6, 4.7, 14, 41, 123, 370, 1111, 3333 or 10,000 nM for one hour in serum-free DMEM and harvested. The phosphorylation status of the tyrosine at amino acid position 861 of the FAK protein (“FAK-PY861”) in the treated cells was then determined by standard Western blotting using phosphorylation-specific antibodies, as indicated in FIG. 1. The Western blot was quantified using a Typhoon scanned image and ImageQuant software and the IC50 value for EXEL-7647-mediated inhibition of FAK-phosphorylation calculated. […] The kinase inhibitor staurosporine (EXEL 00878128) was used as a positive control. […] The identifier EXEL-02377647:9 in FIG. 1 refers to compound EXEL-7647.

[3] = test system: human microvascular endothelial cells (HMVECs); test: VEGF-induced endothelial tubule formation assay; assay type: cell-based; conditions: HMVEC; HMVECs on human diploid fibroblasts, CD31 staining; read-out: IC50 of inhibition of VEGF-induced tubule formation
Source text: When plated on a confluent layer of normal human diploid fibroblasts, human microvascular endothelial cells (HMVECs) form extensive networks of tubules in response to VEGF over a 7-10 day period.

[4] = test system: murine MS1 endothelial cells; test: scratch assay, VEGF-stimulated endothelial cell migration
[5] = test system: MDA-MB-231 tumor xenografts; test: MDA-MB-231 xenografts, 14-day dosing: tumor growth, necrosis, CD31, Ki67; assay type: in vivo, human; conditions: fourteen days; for CD31 Analysis MVC (mean vessel count) / Ki67 Expression % of Cells / Necrosis % increase: mean (SD)
Protocol: Anti-angiogenic effects of EXEL-7647 were also studied in vivo. Tumor xenografts derived from the human breast cancer cell line MDA-MB-231 were established in athymic female mice and allowed to reach a total weight of 100 mg. The mice were then treated orally on fourteen consecutive days with doses of 10, 30 or 100 mg/kg of EXEL-7647. The tumors were harvested and their weights were measured after the last dosage had been administered. Tumors derived from mice treated with vehicle alone served as negative controls. […] A statistically significant increase in tumor necrosis was not observed at the lower dose of 10 mg/kg in this model.

[6] = test system: BT474 tumor xenografts; test: BT474 tumor xenograft growth in athymic nude mice; assay type: in vivo, human; conditions: oral, three consecutive days
Protocol: The human breast cancer cell line BT474 expresses high levels of ErbB2 (Her2), a significant fraction of which is constitutively phosphorylated even in the absence of an exogenous ligand. The phosphorylation of ErbB2 is a measure of its activity. Athymic nude mice bearing tumor xenografts derived from the human breast cancer cell line BT474 were treated orally on three consecutive days with 3, 10, 30 or 100 mg/kg of EXEL-7647. The tumors were harvested 1 hr after the final dose was administered and their weights were measured.

[7] = target: EGFR (Homo sapiens, UniProt P00533); test: EGF-induced EGFR phosphorylation in A431 tumor xenografts in mice; assay type: in vivo
[8] = test system: FAK (focal adhesion kinase); test: FAK (PY861) phosphorylation in DLD1-PTK2 cells, Western blot; assay type: cell-based; conditions: one hour, serum-free DMEM, read-out: IC50 of inhibition of FAK phosphorylation at tyrosine 861
Protocol: as §1

[9] = test system: HCC1954 cells; test: HCC1954 cell proliferation assay (CellTiter 96 AQueous); assay type: cell-based; conditions: Homo sapiens, 72 hours
[10] = cytotoxicity on HMVECs, Alamar blue staining; conditions: human, human microvascular endothelial cells (HMVECs)
[11] = test system: HMVECs; conditions: human
[12] = test system: MDA-MB-231 tumor xenografts; test: MDA-MB-231 xenograft growth, up to 28-day dosing; assay type: in vivo, human
Protocol: The ability of EXEL-7647 to inhibit the growth of tumors derived from the human breast cancer cell line MDA-MB-231 was validated as follows. Tumor xenografts derived from MDA-MB-231 cells were established in athymic female mice and allowed to reach a total weight of 100 mg. The mice were then treated orally on up to twenty-eight consecutive days with doses of 10, 30 or 100 mg/kg of EXEL-7647. The tumors were harvested on specific days after treatment with XL647 had begun and their weights were measured, as indicated in FIG. 7. Tumors derived from mice treated with vehicle alone served as negative controls.

[13] = target: T2, EphB4 (Homo sapiens, UniProt P54760); test: EphB4 phosphorylation in HCT116/EphB4 xenografts in mice; assay type: in vivo
T2 construct: expressed in transfected cells; host or cells: HCT116 (human colon carcinoma), grown as xenografts in mice
T2 sequence (P54760 16-987): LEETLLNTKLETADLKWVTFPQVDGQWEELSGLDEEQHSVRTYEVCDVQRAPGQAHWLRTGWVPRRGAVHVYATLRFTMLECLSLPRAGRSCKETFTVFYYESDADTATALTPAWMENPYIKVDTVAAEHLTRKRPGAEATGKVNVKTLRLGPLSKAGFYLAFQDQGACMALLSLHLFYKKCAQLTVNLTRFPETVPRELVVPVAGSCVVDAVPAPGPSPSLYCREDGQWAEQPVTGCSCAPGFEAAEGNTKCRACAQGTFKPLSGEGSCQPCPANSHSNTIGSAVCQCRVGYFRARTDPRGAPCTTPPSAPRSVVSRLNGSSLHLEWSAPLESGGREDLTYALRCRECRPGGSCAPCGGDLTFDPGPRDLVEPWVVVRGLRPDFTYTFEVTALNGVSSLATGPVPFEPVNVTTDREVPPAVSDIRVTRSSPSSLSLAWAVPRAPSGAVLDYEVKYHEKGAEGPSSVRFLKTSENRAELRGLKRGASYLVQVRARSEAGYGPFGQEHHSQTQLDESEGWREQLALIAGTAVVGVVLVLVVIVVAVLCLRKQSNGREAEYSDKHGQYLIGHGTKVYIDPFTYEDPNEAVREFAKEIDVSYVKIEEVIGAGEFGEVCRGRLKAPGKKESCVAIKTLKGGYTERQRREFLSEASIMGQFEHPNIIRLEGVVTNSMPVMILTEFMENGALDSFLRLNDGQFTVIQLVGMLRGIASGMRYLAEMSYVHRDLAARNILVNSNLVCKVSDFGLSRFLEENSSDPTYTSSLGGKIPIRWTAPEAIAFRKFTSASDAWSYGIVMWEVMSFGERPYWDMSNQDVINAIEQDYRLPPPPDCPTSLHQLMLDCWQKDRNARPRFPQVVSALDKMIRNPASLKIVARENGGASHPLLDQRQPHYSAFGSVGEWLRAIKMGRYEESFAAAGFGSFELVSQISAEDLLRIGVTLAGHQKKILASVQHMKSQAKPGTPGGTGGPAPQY
Source text: The ability of EXEL-7647 to inhibit the activity of the EphB4 receptor (determined by measuring the receptor's level of phosphorylation) was validated as follows. A cell line expressing high levels of EphB4 was derived by transfecting the human colon carcinoma line HCT116 with a drug selectable marker and an expression vector encoding EphB4. The resulting EphB4 expressing cells (HCT116/EphB4) grow as xenografts in immunocompromised mice. […] Attempts to further stimulate EphB4-phosphorylation by intravenous or intratumoral injection of […] were not successful (data not shown).
Mice bearing HCT116/EphB4 xenografts were dosed orally on three consecutive days with 3, 10, 30 or 100 mg/kg EXEL-7647. Tumors were harvested 1 hr after the final dose and assayed individually or in treatment groups for total and phospho-EphB4 levels by standard Western blotting (FIG. 5, left panel). Tumors from mice treated with vehicle alone served as the negative control. The detection of actin served as a control for protein integrity and concentration.
The plasma concentrations of EXEL-7647 in the mice carrying the analyzed tumors (see above) were determined as well and correlated with the corresponding reductions of phospho-EPHB4 levels (FIG. 5, right panel).

[14] = target: ErbB2 (Her2) (Homo sapiens, UniProt P04626); test: ErbB2 phosphorylation in BT474 tumor xenografts in mice; assay type: in vivo
[15] = target: T3, KDR (Mus musculus, UniProt P35918); test: VEGF-induced KDR phosphorylation in mouse lungs; assay type: in vivo, mice; conditions: mouse lung lysate pools; read-out: IC50 of decrease of VEGF-induced KDR receptor phosphorylation (plasma concentration)
T3 construct: from tissue; host or cells: mouse lung

[16] = target: T1, Src; conditions: both cell lines (JIMT-1, HCC1954), 18 hours of treatment

Chain of ErbB2 (Her2) (P04626 23-1255): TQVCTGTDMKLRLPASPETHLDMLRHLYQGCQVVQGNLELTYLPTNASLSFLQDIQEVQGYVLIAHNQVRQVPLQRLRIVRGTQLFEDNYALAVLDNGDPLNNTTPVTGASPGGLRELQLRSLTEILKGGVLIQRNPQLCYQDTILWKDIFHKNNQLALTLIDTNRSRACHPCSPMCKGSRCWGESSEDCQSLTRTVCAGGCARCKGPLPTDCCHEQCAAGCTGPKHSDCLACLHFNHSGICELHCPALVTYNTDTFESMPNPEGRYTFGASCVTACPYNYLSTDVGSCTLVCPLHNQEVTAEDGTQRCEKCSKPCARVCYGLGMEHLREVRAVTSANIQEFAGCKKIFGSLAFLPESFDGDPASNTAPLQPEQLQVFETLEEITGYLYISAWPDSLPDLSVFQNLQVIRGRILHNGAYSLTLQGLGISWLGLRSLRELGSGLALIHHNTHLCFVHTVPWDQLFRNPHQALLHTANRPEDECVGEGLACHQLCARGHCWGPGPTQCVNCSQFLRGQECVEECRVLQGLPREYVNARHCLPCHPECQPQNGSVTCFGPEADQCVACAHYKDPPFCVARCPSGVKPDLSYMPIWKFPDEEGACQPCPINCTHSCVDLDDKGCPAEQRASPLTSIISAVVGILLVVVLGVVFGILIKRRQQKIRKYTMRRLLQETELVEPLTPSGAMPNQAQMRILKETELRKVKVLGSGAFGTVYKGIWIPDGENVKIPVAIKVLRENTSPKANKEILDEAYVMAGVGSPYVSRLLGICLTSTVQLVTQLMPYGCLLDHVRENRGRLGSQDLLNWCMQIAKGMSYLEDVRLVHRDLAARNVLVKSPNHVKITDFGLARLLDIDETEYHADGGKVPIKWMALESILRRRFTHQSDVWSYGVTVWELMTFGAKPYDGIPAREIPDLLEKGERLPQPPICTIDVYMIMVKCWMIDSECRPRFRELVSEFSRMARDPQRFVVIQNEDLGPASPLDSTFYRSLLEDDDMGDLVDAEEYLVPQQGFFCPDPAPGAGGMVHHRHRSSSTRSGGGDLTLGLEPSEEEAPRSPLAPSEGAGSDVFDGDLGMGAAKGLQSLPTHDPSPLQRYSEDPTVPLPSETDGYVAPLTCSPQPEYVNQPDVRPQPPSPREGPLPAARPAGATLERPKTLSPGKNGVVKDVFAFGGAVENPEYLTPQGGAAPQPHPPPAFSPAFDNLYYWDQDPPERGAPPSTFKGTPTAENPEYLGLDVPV
T1 sequence (P12931 whole entry): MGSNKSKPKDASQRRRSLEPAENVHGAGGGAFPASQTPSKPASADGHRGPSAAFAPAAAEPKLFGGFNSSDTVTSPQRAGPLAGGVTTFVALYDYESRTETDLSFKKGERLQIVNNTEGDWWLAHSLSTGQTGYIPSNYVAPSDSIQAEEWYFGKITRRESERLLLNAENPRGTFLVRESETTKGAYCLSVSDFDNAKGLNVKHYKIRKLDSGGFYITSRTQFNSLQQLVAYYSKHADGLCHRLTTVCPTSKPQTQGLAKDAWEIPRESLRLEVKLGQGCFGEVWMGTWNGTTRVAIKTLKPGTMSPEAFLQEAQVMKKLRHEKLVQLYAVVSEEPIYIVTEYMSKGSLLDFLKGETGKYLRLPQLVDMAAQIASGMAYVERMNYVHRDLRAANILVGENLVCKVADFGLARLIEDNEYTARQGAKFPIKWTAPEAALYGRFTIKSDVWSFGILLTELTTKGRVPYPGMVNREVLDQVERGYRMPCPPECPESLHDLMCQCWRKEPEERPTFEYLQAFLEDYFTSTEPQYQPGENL
Chain of EGFR (P00533 25-1210): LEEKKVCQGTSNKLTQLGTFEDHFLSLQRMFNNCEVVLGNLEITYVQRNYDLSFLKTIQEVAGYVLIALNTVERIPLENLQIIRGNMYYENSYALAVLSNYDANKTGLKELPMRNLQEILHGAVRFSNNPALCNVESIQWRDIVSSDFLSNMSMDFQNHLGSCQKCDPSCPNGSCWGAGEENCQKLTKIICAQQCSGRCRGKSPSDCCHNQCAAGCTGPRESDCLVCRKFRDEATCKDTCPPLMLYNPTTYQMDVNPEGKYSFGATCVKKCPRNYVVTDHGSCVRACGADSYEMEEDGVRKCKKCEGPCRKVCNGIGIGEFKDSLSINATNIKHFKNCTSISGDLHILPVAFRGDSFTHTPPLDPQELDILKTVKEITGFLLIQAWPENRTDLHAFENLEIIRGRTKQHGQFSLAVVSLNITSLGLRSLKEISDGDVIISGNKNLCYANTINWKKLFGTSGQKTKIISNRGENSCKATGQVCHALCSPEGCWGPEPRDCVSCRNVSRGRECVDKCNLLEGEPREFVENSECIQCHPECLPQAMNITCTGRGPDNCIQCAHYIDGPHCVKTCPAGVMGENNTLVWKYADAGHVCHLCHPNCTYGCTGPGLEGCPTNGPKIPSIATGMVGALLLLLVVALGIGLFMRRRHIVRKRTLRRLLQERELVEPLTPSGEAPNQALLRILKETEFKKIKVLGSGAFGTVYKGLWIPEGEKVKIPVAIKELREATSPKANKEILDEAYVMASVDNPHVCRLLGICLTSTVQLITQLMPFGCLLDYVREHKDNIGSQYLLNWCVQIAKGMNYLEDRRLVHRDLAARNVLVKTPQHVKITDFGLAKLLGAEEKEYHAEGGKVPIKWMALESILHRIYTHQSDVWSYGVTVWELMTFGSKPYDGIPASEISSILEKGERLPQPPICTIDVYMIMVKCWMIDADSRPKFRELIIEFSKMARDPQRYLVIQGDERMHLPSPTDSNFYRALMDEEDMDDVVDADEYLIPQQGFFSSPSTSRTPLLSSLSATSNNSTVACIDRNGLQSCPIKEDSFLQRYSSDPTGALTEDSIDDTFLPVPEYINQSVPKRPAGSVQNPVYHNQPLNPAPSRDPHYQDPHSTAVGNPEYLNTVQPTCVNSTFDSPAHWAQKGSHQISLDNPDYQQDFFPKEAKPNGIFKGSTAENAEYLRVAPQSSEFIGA
T3 sequence (P35918 20-1345): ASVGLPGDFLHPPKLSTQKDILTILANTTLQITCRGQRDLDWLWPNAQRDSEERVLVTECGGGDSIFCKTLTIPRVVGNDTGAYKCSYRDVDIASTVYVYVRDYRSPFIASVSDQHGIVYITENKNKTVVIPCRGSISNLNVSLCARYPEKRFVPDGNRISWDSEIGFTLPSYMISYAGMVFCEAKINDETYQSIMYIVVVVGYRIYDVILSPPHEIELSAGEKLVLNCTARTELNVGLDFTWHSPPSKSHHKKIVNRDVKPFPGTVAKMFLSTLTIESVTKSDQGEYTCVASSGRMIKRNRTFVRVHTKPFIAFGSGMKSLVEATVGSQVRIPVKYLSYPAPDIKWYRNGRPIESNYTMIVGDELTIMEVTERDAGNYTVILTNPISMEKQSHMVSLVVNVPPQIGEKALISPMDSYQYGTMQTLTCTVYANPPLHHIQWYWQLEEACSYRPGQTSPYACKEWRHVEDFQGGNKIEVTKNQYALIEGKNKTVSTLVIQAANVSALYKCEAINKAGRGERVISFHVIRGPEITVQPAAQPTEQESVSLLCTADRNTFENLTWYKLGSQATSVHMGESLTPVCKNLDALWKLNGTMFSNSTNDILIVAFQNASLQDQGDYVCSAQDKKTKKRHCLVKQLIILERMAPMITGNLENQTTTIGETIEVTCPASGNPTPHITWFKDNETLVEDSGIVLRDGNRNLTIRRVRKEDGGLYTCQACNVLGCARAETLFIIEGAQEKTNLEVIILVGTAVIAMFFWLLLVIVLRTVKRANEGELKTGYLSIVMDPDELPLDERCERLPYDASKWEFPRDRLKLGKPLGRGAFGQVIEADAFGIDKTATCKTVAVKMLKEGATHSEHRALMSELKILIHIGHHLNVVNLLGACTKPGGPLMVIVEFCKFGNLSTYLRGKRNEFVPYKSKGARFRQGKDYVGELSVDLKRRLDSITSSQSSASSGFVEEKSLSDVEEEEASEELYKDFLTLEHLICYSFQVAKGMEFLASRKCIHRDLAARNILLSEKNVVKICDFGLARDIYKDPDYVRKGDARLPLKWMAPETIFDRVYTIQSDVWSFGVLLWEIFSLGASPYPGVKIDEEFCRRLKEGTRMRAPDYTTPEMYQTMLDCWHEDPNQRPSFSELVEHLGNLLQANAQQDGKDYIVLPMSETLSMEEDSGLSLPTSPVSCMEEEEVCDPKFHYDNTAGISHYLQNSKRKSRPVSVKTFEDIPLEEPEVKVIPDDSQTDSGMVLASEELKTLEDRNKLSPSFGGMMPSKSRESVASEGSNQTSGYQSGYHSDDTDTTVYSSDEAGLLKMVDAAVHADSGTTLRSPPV

`COc1cc2c(Nc3ccc(Cl)c(Cl)c3F)ncnc2cc1OCC1C[C@@H]2CN(C)C[C@@H]2C1` (stereo partly drawn) [EXEL-7647, N-(3,4-dichloro-2-fluorophenyl)-7-({[(3aR,6aS)-2-methyloctahydrocyclopenta[c]pyrrol-5-yl]methyl}oxy)-6-(methyloxy)quinazolin-4-amine] gave an inhibition at 0.2 µM ([1]; EXEL-7647 0.2 μM alone) of 15.7%, an inhibition at 0.5 µM ([1]; EXEL-7647 0.5 μM alone) of 20.3% and an inhibition at 1 µM ([1]; EXEL-7647 1.0 μM alone) of 22.7%. The inhibition at 2 µM ([1]; EXEL-7647 2.0 μM alone) was 28.8%, the inhibition at 5 µM ([1]; EXEL-7647 5.0 μM alone) was 81.7% and the IC50 [2] was 0.0103 µM. For the same compound, the IC50 [3] was about 0.22 µM, the “cytotoxicity in scratch assay” value ([4]; concentrations below 1.1 μM) was “No evidence for cytotoxicity” and the IC50 ([4]; read-out: IC50 of inhibition of cellular migration into the scratch, VEGF-stimulated MS1 cells, 24 hrs, six-point dose response) was about 0.12 µM. The “CD31 Analysis % Reduction” value ([5]; 10 mg/kg oral) was 30.23%, the “Ki67 Expression % Reduction” value ([5]; 10 mg/kg oral) was 39.6% and the Necrosis fold increase ([5]; 10 mg/kg oral) was 1.6 fold. For the same compound, the “CD31 Analysis MVC (mean vessel count)” value ([5]; 10 mg/kg oral) was 12.93 (2.3), the “Ki67 Expression % of Cells” value ([5]; 10 mg/kg oral) was 29.8 (13.3) % and the Necrosis % increase ([5]; 10 mg/kg oral) was 25.0 (14.2) %. The “CD31 Analysis % Reduction” value ([5]; 30 mg/kg oral) was 55.83%, the “Ki67 Expression % Reduction” value ([5]; 30 mg/kg oral) was 42.6% and the Necrosis fold increase ([5]; 30 mg/kg oral) was 2.0 fold. The “CD31 Analysis MVC (mean vessel count)” value ([5]; 30 mg/kg oral) was 8.18 (1.4), the “Ki67 Expression % of Cells” value ([5]; 30 mg/kg oral) was 28.3 (10.4) % and the Necrosis % increase ([5]; 30 mg/kg oral) was 30.6 (11.3) %. For the same compound, the “CD31 Analysis % Reduction” value ([5]; 100 mg/kg oral) was 91.23%, the “Ki67 Expression % Reduction” value ([5]; 100 mg/kg oral) was 49.6% and the Necrosis fold increase ([5]; 100 mg/kg oral) was 4.5 fold. For the same compound, the “CD31 Analysis MVC (mean vessel count)” value ([5]; 100 mg/kg oral) was 1.625 (1), the “Ki67 Expression % of Cells” value ([5]; 100 mg/kg oral) was 24.87 (4.9) % and the Necrosis % increase ([5]; 100 mg/kg oral) was 71.1 (8.1) %. The “tumor weight at end of study” value ([5]; 100 mg/kg oral, tumor weight at start 100.6±8.7 mg) was 112 ± 16.2 mg, the “calculated ED50 of inhibition of tumor growth” value [6] was 30 mg EXEL-7647 per kg of body weight and the “reduction of EGF-induced EGFR-phosphorylation” value ([7]; 100 mg/kg oral, vs positive control) was “about 90%”. For the same compound, the IC50 ([7]; read-out: IC50 plasma concentration for inhibition of EGFR phosphorylation in tumors) was 0.72 µM, the IC50 [8] was about 1 µM and the inhibition at 0.2 µM ([9]; EXEL-7647 0.2 μM alone) was 22.5%. For the same compound, the inhibition at 0.5 µM ([9]; EXEL-7647 0.5 μM alone) was 32.6%, the inhibition at 1 µM ([9]; EXEL-7647 1.0 μM alone) was 38.1% and the inhibition at 2 µM ([9]; EXEL-7647 2.0 μM alone) was 43.6%. For the same compound, the inhibition at 5 µM ([9]; EXEL-7647 5.0 μM alone) was 80.4%, the IC50 [10] was about 1.3 µM and the “cytotoxicity IC50 relative to IC50 of tubule formation inhibition” value [11] was “approximately 5 fold”. The final tumor weight ([12]; 100 mg/kg oral, up to twenty-eight days, starting tumor weight 94±9 mg) was 117 ± 33 mg, the “calculated ED50 of inhibition of tumor growth” value ([12]; MDA-MB-231 xenografts, oral, up to twenty-eight consecutive days) was 22.9 mg of XL647 per kg body weight and the “reduction of phospho-EphB4” value ([13]; 100 mg/kg oral on three consecutive days) was “approximately 70%”. For the same compound, the IC50 ([13]; HCT116/EphB4 xenografts, read-out: plasma concentration predicted for 50% inhibition of EphB4-phosphorylation) was about 2.4 µM, the “reduction of EphB4 phosphorylation in tumors” value ([13]; plasma concentration of about 3 μM) was “approximately 70%” and the “reduction of phospho-ErbB2” value ([14]; 100 mg/kg oral on three consecutive days, vs vehicle) was “approximately 70%”. For the same compound, the IC50 ([14]; BT474 xenografts, correlated with plasma concentration, read-out: IC50 of inhibition of phospho-ErbB2 accumulation in tumors (plasma concentration)) was 3.58 µM, the “reduction of phospho-ErbB2” value ([14]; plasma concentration of about 5.37 μM) was “approximately 69%” and the IC50 [15] was about 1.23 µM.
With `CS(=O)(=O)CCNCc1ccc(-c2ccc3ncnc(Nc4ccc(OCc5cccc(F)c5)c(Cl)c4)c3c2)o1` [lapatinib] the “able to inhibit SRC activity (SRC phosphorylation)” value [16] was “not”.

— patent US20150010545A1 (KADMON CORPORATION, LLC, priority 2011, published 2015)
